Where two headings read alike, the source gives them in different places.
What was measured:
[1] = target: T1, chimeric 3′(2′),5′-bisphosphate nucleotidase (Saccharomyces cerevisiae, UniProt P32179); format: biochemical, Saccharomyces cerevisaie
T1 construct: His6 (C)
From the text: (§1) Assay Principle. […] Through enzymatic coupling, the phosphatase substrate, adenosine 3′,5′-bisphosphate (PAP) was converted to hypoxanthine by a series of enzymatic reactions to generate uric acid and hydrogen peroxide (H2O2). H2O2 generated reacts with N-Ethyl-N-(2-hydroxy-3-sulfopropyl)-3-m-toluidine (EHSPT) and 4-aminoantipyrine (4-AA) in the presence of peroxidase (POD) to form a quinone dye which had maximal absorbance at 556 nm. The rate of the quinine dye formation was inversely proportion to the concentration of sodium in serum samples. The enzymatic coupling reaction scheme is shown below in Table 3:
Key Assay Characteristics. The sodium enzymatic assay was a two reagent (R1 and R2) based kinetic assay system. The results were obtained in 10 min by measuring absorbance at 550 nm. No off line pretreatment was needed.
(§2) Assay Procedure. • 1. Reconstituted R1 and R2 reagents as described in Reagent Preparation section and kept the reconstituted R1 and R2 reagents on ice bath. • 2. In a cuvette, mixed 180 μL of Reagent R1 and 20 μL of serum sample and incubated at 37° C. for 1 minute and then added 85 μL of Reagent 2. • 3. Read absorbance (550 nm) at 3 min (2 min after addition of Reagent 2) as A1. Incubated for a further 7 min and read the absorbance at 10 min as A2. • 4. Calculated ΔA=A2−A1
Calibration. This assay was calibrated daily using the enclosed low and high sodium standards. A calibration curve was constructed by plotting the ΔA values of the standards against the corresponding sodium concentrations. The sodium concentration of the sample was read from the calibration curve.

[2] = target: T1, chimeric 3′(2′),5′-bisphosphate nucleotidase; experiment: biochemical; set-up: species or system Saccharomyces cerevisaie
From the text: as §1, with “(H2O2). The” for “(H2O2).”, “reacted” for “reacts”, “lithium” for “sodium”, “6.” for “3:”
Key Assay Characteristics. The lithium enzymatic assay was a two reagent (R1 and R2) based kinetic assay system. The results were obtained in 10 min by measuring absorbance at 550 nm. No off line pretreatment was needed.
as §2, with “5” for “20”, “6 minutes” for “3 min (2 min after addition of Reagent 2)”, “3 more minutes” for “a further 7 min”, “9 minute” for “10 min”
Calibration and Quality Control. The assay was calibrated daily using the enclosed low and high lithium standards. The calibration curve was constructed by plotting the ΔA values of the standards against the corresponding lithium concentrations. The lithium concentration of the sample was read from the calibration curve. The assay should be calibrated daily.

T1 sequence (P32179 other isoform, or with tags, fused parts or gaps): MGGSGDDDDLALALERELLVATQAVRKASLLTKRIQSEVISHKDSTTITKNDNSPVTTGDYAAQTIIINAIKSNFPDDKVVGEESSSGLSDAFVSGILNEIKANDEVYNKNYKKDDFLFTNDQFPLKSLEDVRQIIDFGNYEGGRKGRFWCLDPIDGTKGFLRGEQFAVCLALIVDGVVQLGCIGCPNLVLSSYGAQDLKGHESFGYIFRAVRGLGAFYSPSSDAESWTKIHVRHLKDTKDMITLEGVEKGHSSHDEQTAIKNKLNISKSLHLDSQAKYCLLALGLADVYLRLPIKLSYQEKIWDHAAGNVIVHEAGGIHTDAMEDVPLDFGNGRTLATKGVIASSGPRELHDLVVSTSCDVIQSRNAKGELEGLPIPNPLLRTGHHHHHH

With `[Cl-].[Cl-].[Zn+2]` [ZnCl2] the “Interference with sodium assay” value ([1]; substance at 0.25 mM) was “not interfered”.
KPi was tested, and the “Interference with sodium assay” value ([1]; substance at 1.5 mM) was “not interfered”.
With `[Ca+2]` [Ca^2+] the “Interference with lithium assay” value ([2]; substance at 4.0 mM) was “not interfered”.
For `[Cl][Fe]([Cl])[Cl]` [FeCl3], the “Interference with sodium assay” value ([1]; substance at 0.25 mM) was “not interfered”.
With `N` [NH4^+] the “Interference with lithium assay” value ([2]; substance at 0.5 mM) was “not interfered”.
With `[Cu+2]` [Cu^2+] the “Interference with lithium assay” value ([2]; substance at 0.25 mM) was “not interfered”.
With `[Zn+2]` [Zn^2+] the “Interference with lithium assay” value ([2]; substance at 0.25 mM) was “not interfered”.
With `[Fe+3]` [Fe^3+] the “Interference with lithium assay” value ([2]; substance at 0.25 mM) was “not interfered”.
For `[K+]` [K^+], the “Interference with lithium assay” value [2] was “not interfered”.
`[Na+]` [sodium] was tested, and the “Interference with lithium assay” value ([2]; substance at 200 mM) was “not interfered” and the IC50 ([1]; read-out: IC50 (nucleotidase activity sensitive to sodium concentration)) was 20 mM.
In the case of `Cl.N` [NH4Cl], the “Interference with sodium assay” value [1] is reported as “not interfered”.
In the case of `[Cl-].[Na+]` [NaCl], the “Interference with sodium assay” value [1] is reported as “not interfered”.
`[Li]` [lithium, reference compound] was tested, and the IC50 ([2]; read-out: IC50 (nucleotidase activity sensitive to lithium concentration)) was 0.1 mM.
In the case of `[Ca+2].[Cl-].[Cl-]` [CaCl2], the “Interference with sodium assay” value ([1]; substance at 5 mM) is reported as “not interfered”.
With `O=C1O[C@H]([C@@H](O)CO)C(O)=C1O` [ascorbic acid] the “Interference with lithium assay” value ([2]; substance at 5.0 mM) was “not interfered” and the “Interference with sodium assay” value ([1]; substance at 5 mM) was “not interfered”.
For triglyceride, the “Interference with sodium assay” value ([1]; substance at 250 mg/dl) was “not interfered”.
In the case of `[Mg+2]` [Mg^2+], the “Interference with lithium assay” value ([2]; substance at 2.0 mM) is reported as “not interfered”.
`[Cl][Cu][Cl]` [CuCl2] was tested, and the “Interference with sodium assay” value ([1]; substance at 0.25 mM) was “not interfered”.
`[Cl-].[K+]` [KCl] was tested, and the “Interference with sodium assay” value ([1]; substance at 10 mM) was “not interfered”.
